Measured values from patent US6894185B2, “Substituted chiral allosteric hemoglobin modifiers” (Allós Therapeutics, Inc., priority 1999, dated 2005).
Several values for one entry are separate records, joined by “and”; a condition that tells them apart may be missing. Identical values can stand only once.

How the values were obtained:
hemoglobin = biological target: T1, hemoglobin (Homo sapiens, UniProt P68871+P69905); assay: In vitro whole blood studies (multi-point tonometry and blood gas analysis); type: cell-based; conditions: for ΔP50 ± S.D. (P50 effector − P50control) / P50e (P50 value in the presence of the effector): Table VI, 2.5 mM Hb, 5.0 mM effector; for P50e (P50 value in the presence of the effector): single runs, DMSO stock
T1 construct: The whole blood samples were collected in heparinized tubes from healthy volunteers; from tissue; host or cells: human whole blood (heparinized) from healthy volunteers
Description: (§1) Structure-allosteric activity relationships were determined from the synthetic chiral effectors comparing the shift in the oxygen binding curve of Hb solutions using a Hemox-Analyzer. In vitro biological activity testing in the presence of plasma proteins was also performed on selected enantiomers and racemates (multi-point tonometry and blood gas analysis) to screen for candidates with potential clinical use. SAR studies compared the degree in shift in P50 values, i.e., the partial pressure of molecular oxygen necessary to half-saturate hemoglobin. An effector that decreases Hb oxygen affinity increases the P50 value relative to the control. Thus, the activity or potency of each analog could be expressed by the ratio P50 (effector)/P50(control). Tables and II and III summarize the p50 values obtained using human whole blood, while Tables IV and V summarize the P50 and the Hill coefficient values (n50) at half-saturation obtained using Hemox-analyzer. The slope of the log of the oxygen binding curves is known as the Hill coefficient. The Hill coefficient measures the degree of cooperativity in binding for an allosteric protein, the normal range for human blood is 2.7-3.2. Table VI presents the results from the whole blood studies given as a ΔP50 and Hill coefficient (n50) values for the enantiomers and racemates.
The whole blood samples were collected in heparinized tubes from healthy volunteers and stored over ice. The sodium salts of the compounds were prepared as described earlier. A 200 mM stock solution of the effector was prepared in DMSO. A 5.0 mM test solution was prepared from 50 μL of the 200 mM test solution and 1950 μL of whole blood. The blood samples were incubated in IL 237 tonometers (Instrumentation Laboratories, Inc. Lexington, Mass.) for approximately 10-12 min at 37° C. and equilibrated at three separate concentrations of O2 (20%, 40%, and 60%). After equilibration at each concentration of O2, a sample was removed via syringe and aspirated into a IL 1420 Automated Blood Gas Analyzer (Instrumentation Laboratories, Inc. Lexington, Mass.) and a IL 482 and IL 682 Co-oximeter (Instrumentation Laboratories, Inc. Lexington, Mass.) to determine the pH, pCO2, pO2 and the hemoglobin oxygen saturation values (sO2), respectively. The measured values for pO2 and sO2 at each oxygen saturation level were then subjected to a non-linear regression analysis using the program Scientist (Micromath, Salt Lake City, Utah) to calculate the P50 and Hill coefficient values.

[1] = biological target: T2, purified stripped human adult hemoglobin (Homo sapiens, UniProt P68871+P69905); assay: Hemoglobin solution oxygen equilibrium studies (HEMOX-analyzer); type: biochemical; conditions: Table IV, 0.5 mM effector, pH 7.2; for n50 (Hill coefficient at 50% saturation): n50 control 2.7; for P50e/P50c: ratio to P50 control with no effector (5.0 mmHg)
T2 construct: using purified stripped human adult hemoglobin as described previously; from tissue
Description: as §1, with “Tables and II and III summarize the p50 values obtained using human whole blood, while Tables IV and V summarize the P50 and the Hill coefficient values (n50) at half-saturation obtained using Hemox-analyzer.” left out, “2.7-3.2.” for “2.7-3.2. Table VI presents the results from the whole blood studies given as a ΔP50 and Hill coefficient (n50) values for the enantiomers and racemates.”
The effectors were prepared as 10 mM stock solutions in 100 mM NaCl bis-Tris buffer, pH 7.2. After the addition of an excess of NaHCO3, the solution was warmed to 60° C. and stirred for several hours. The solutions were back titrated carefully to pH 7.2 at 25° C. prior to use. Oxygen equilibrium measurements were performed with the HEMOX-analyzer (TCS Medical products, Southampton, Pa.) using purified stripped human adult hemoglobin as described previously. 4 mL of buffer, 100 mM NaCl, 50 mM bis-Tris at pH 7.2, is added to a cuvette in the HEMOX, followed by 200 μL of the 10 mM effector stock solution. Hemoglobin is then added to achieve a final Hb concentration of […] on heme basis. Catalase (20 μg/mL) and 50 mM EDTA were added to limit oxidation of the hemes. […] The saturation of hemoglobin was determined spectrophotometrically with a dual wavelength spectrophotometer (577 nm and 586.2 nm). The solution was stirred constantly during the 45-60 min recordings. The P50 and n50 values were calculated by linear regression analysis from data points comprised between 40 and 60% oxygen saturation.

[2] = biological target: T2, purified stripped human adult hemoglobin; assay: as above; type: biochemical; conditions: Table IV; 0.5 mM effector, 100 mM bis-Tris buffer, pH 7.2

T2 sequence (P69905 2-142 limits assumed): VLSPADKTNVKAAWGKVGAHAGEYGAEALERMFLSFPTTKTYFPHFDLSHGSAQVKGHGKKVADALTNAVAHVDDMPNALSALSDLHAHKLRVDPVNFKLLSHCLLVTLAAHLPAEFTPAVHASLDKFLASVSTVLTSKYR
T2 sequence (P68871 2-147 limits assumed): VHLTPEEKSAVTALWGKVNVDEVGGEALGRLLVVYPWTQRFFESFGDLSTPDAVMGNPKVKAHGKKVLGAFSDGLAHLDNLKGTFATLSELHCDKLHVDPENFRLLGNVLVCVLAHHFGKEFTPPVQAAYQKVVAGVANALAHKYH
T1 sequence (P69905 2-142 limits assumed): as the sequence (P69905 2-142 limits assumed) above
T1 sequence (P68871 2-147 limits assumed): as the sequence (P68871 2-147 limits assumed) above

Whole Blood Δp50 mm Hg (hemoglobin; Table III) [mm Hg] | melting point [°C] | Structure (SMILES) | other results
 |  | Cc1cc(Cl)cc(NC(=O)Cc2ccc(OC3(C(=O)O)CCC(C)C3)cc2)c1 (centres unmarked) [Compound 9, 1-[4-[[(3-chloro-5-methylanilino)carbonyl]methyl]phenoxy]-3-methylcyclopentane carboxylic acid] | Whole Blood Δp50 mm Hg (hemoglobin; Table II): 15 mm Hg; n50 (Hill coefficient at 50% saturation) [1]: 2.4; P50e/P50c [1]: 2.8; P50e (oxygen pressure at which Hb is 50% saturated with oxygen in the presence of the effector) [2]: 14 mmHg
 |  | COCC(C)(Oc1ccc(CC(=O)Nc2cc(C)cc(C)c2)cc1)C(=O)O (centres unmarked) [Compound 10, 2-[4-[[(3,5-dimethylanilino)carbonyl]methyl]phenoxy]-3-methoxy-2-methylpropanoic acid] | Whole Blood Δp50 mm Hg (hemoglobin; Table II): 24 mm Hg; n50 (Hill coefficient at 50% saturation) [1]: 2.4; P50e/P50c [1]: 1.7; P50e (oxygen pressure at which Hb is 50% saturated with oxygen in the presence of the effector) [2]: 8.4 mmHg
 |  | Cc1cc(C)cc(NC(=O)Cc2ccc(OC3(C(=O)O)CCCC(C)C3)cc2)c1 (centres unmarked) [Compound 11, 1-[4-[[(3,5-dimethylanilino)carbonyl]methyl]phenoxy]-3-methylcyclohexane carboxylic acid] | Whole Blood Δp50 mm Hg (hemoglobin; Table II): 16 mm Hg; n50 (Hill coefficient at 50% saturation) [1]: 2.5; P50e/P50c [1]: 2.1; P50e (oxygen pressure at which Hb is 50% saturated with oxygen in the presence of the effector) [2]: 10 mmHg
22 | 117 to 118 | Cc1cc(C)cc(NC(=O)Cc2ccc(OC3(C(=O)N[C@@H](C)C(=O)O)CCCC3)cc2)c1 [Compound 39, 1-[4-(((3,5-dimethylanilino)carbonyl)methyl)phenoxy] cyclopentanecarbonyl-L-alanine] | 
40 | 119 to 120 | Cc1cc(C)cc(NC(=O)Cc2ccc(OC3(C(=O)N[C@H](CC(C)C)C(=O)O)CCCC3)cc2)c1 [Compound 40, 1-[4-(((3,5-dimethylanilino)carbonyl)methyl)phenoxy]cyclopentanecarbonyl-D-leucine] | 
15 | 119 to 120 | Cc1cc(C)cc(NC(=O)Cc2ccc(OC3(C(=O)N[C@@H](CC(C)C)C(=O)O)CCCC3)cc2)c1 [Compound 41, 1-[4-(((3,5-dimethylanilino)carbonyl)methyl)phenoxy]cyclopentanecarbonyl-L-leucine] | 
30 | 104 to 106 | Cc1cc(C)cc(NC(=O)Cc2ccc(OC3(C(=O)N[C@H](C(=O)O)C(C)C)CCCC3)cc2)c1 [Compound 43, 1-[4-(((3,5-dimethylanilino)carbonyl)methyl)phenoxy]cyclopentanecarbonyl-L-valine] | 
38 | 106 to 108 | Cc1cc(C)cc(NC(=O)Cc2ccc(OC3(C(=O)N[C@H](Cc4ccccc4)C(=O)O)CCCC3)cc2)c1 [Compound 44, 1-[4-(((3,5-dimethylanilino)carbonyl)methyl)phenoxy]cyclopentanecarbonyl-D-phenylalanine] | 
20 | 83 to 84 | Cc1cc(C)cc(NC(=O)Cc2ccc(OC3(C(=O)N[C@H](Cc4c[nH]c5ccccc45)C(=O)O)CCCC3)cc2)c1 [Compound 46, 1-[4-(((3,5-dimethylanilino)carbonyl)methyl)phenoxy]cyclopentanecarbonyl-D-tryptophan] | 
16 | 58 to 59 | Cc1cc(C)cc(NC(=O)Cc2ccc(OC3(C(=O)N[C@H](CO)C(=O)O)CCCC3)cc2)c1 [Compound 49, 1-[4-(((3,5-dimethylanilino)carbonyl)methyl)phenoxy]cyclopentanecarbonyl-D-serine] | 
5 | 58 to 59 | Cc1cc(C)cc(NC(=O)Cc2ccc(OC3(C(=O)N[C@@H](CO)C(=O)O)CCCC3)cc2)c1 [Compound 50, 1-[4-(((3,5-dimethylanilino)carbonyl)methyl)phenoxy]cyclopentanecarbonyl-L-serine] | 
27 | 54 to 55 | CSCC[C@@H](NC(=O)C1(Oc2ccc(CC(=O)Nc3cc(C)cc(C)c3)cc2)CCCC1)C(=O)O [Compound 51, 1-[4-(((3,5-dimethylanilino)carbonyl)methyl)phenoxy]cyclopentanecarbonyl-D-methionine] | 
13 | 127 to 128 | CC[C@H](C)[C@H](NC(=O)C1(Oc2ccc(CC(=O)Nc3cc(C)cc(C)c3)cc2)CCCC1)C(=O)O [Compound 53, 1-[4-(((3,5-dimethylanilino)carbonyl)methyl)phenoxy]cyclopentanecarbonyl-L-isoleucine] | 
21 | 74 to 75 | Cc1cc(C)cc(NC(=O)Cc2ccc(OC3(C(=O)N[C@@H](Cc4ccc(O)cc4)C(=O)O)CCCC3)cc2)c1 [Compound 54, 1-[4-(((3,5-dimethylanilino)carbonyl)methyl)phenoxy]cyclopentanecarbonyl-L-tyrosine] | 
17 | 71 to 72 | Cc1cc(C)cc(NC(=O)Cc2ccc(OC3(C(=O)N4CCC[C@H]4C(=O)O)CCCC3)cc2)c1 [Compound 56, 1-[4-(((3,5-dimethylanilino)carbonyl)methyl)phenoxy]cyclopentanecarbonyl-L-proline] | 
13 | 64 to 66 | Cc1cc(C)cc(NC(=O)Cc2ccc(OC3(C(=O)N[C@H](C(=O)O)[C@@H](C)O)CCCC3)cc2)c1 [Compound 58, 1-[4-(((3,5-dimethylanilino)carbonyl)methyl)phenoxy]cyclopentanecarbonyl-L-threonine] | 
−0.6 | 124 to 125 | Cc1cc(C)cc(NC(=O)Cc2ccc(OC3(C(=O)N[C@@H](CCCCN)C(=O)O)CCCC3)cc2)c1 [Compound 62, 1-[4-(((3,5-dimethylanilino)carbonyl)methyl)phenoxy]cyclopentanecarbonyl-L-lysine] | 
 |  | Cc1cc(C)cc(NC(=O)Cc2ccc(OC3(C(=O)O)CCCC3)cc2)c1 [JP7, 1-[4-(((3,5-dimethylanilino)carbonyl)methyl)phenoxy]cyclopentanecarboxylic acid, reference compound] | ΔP50 ± S.D. (P50 effector − P50control) (hemoglobin): 42.3 ± 4.9 mmHg; P50e (P50 value in the presence of the effector) (hemoglobin): 74.7 mmHg and 67.7 mmHg; n50 (Hill coefficient at 50% saturation) [1]: 2.4; P50e/P50c [1]: 5.1; P50e (oxygen pressure at which Hb is 50% saturated with oxygen in the presence of the effector) [2]: 26 mmHg
 |  | Cc1cc(C)cc(NC(=O)Cc2ccc(OC(C)(C)C(=O)O)cc2)c1 [RSR13, reference compound] | ΔP50 ± S.D. (P50 effector − P50control) (hemoglobin): 45.2 ± 2.2 mmHg; P50e (P50 value in the presence of the effector) (hemoglobin): 76.5 mmHg and 73.4 mmHg; n50 (Hill coefficient at 50% saturation) [1]: 2.3; P50e/P50c [1]: 4.7; P50e (oxygen pressure at which Hb is 50% saturated with oxygen in the presence of the effector) [2]: 23 mmHg
